{"source": "patent US6774126B2", "about": "“Pyrrolo[1,2-b][1,2,4]oxadiazine diones useful as nitric oxide synthase inhibitors” (Pharmacia Corporation, priority 1998, dated 2004)", "test_system": "plasma nitrites induced by endotoxin (LPS)", "assay": "In Vivo Assay: Low Dose LPS, plasma nitrites in endotoxin-treated mice", "settings": "LPS 12.5 mg/kg i.p., plasma nitrites 5 hours post-treatment", "protocol": "In Vivo Assay Mice were treated with an intraperitoneal injection of 12.5 mg/kg of endotoxin (LPS) with or without oral administration of the nitric oxide synthase inhibitors. Plasma nitrites were measured 5 hours post-treatment.", "data": [{"smiles": "O=c1onc2n1CCCCC2", "note": "[Example 1, 6,7,8,9-tetrahydro-3H,5H-[1,2,4]oxadiazolo[4,3-a]azepin-3-one]", "values": [{"measurement": "Low Dose LPS in vivo, inhibition of rise in plasma nitrites", "setting": "compound 1 mg/kg p.o.", "result": 23, "unit": "% inh."}, {"measurement": "Low Dose LPS in vivo, inhibition of rise in plasma nitrites", "setting": "compound 10 mg/kg p.o.", "result": 72, "unit": "% inh."}]}, {"smiles": "NCCC1CCCCc2noc(=O)n21", "note": "(stereo not shown) [Example 3, 5-(2-aminoethyl)-6,7,8,9-tetrahydro-3H,5H-[1,2,4]oxadiazolo[4,3-a]azepin-3-one, mono(trifluoroacetate)]", "values": [{"measurement": "Low Dose LPS in vivo, inhibition of rise in plasma nitrites", "setting": "compound 3 mg/kg p.o.", "result": 33, "unit": "% inh."}, {"measurement": "Low Dose LPS in vivo, inhibition of rise in plasma nitrites", "setting": "compound 10 mg/kg p.o.", "result": 64, "unit": "% inh."}]}]}
